The text below walks through data of article PMC7530896 (Journal of the American Chemical Society, 2020).

One series deals with PARK7. As to the kind of experiment: Morpholino injections in zebrafish embryos, heart phenotype. The format is in vivo, zebrafish (Danio rerio). The conditions noted are these: 2 dpf zebrafish embryos.
Another series concerns UCHL1. As to the kind of experiment: Morpholino injections in zebrafish embryos, tail phenotype. The format is in vivo, zebrafish (Danio rerio). The conditions noted are these: 2 dpf zebrafish embryos, 2 ng morpholino.
In series [1] the target is T1, purified recombinant human UCHL1 (Homo sapiens, UniProt P09936).
T1 sequence (P09936 1-223): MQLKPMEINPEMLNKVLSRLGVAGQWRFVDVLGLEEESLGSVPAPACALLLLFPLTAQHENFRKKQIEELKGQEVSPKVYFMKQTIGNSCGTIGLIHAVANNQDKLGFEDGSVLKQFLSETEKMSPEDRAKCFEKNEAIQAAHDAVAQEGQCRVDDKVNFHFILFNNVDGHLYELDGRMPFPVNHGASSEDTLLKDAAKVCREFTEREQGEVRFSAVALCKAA
As to the kind of experiment: Probe labeling of purified recombinant UCHL1. In kind it is binding. The note with it: small-molecule probes: nondenaturing SDS-PAGE (no boiling, no β-mercaptoethanol).

Regarding “PARK7MO1: morpholino targeting PARK7 exon 2, 5′-TATGTAAAGTCAGACCTGTTTGTG-3′ (all phosphorodiamidate morpholino (PMO))”, the “abnormal enlarged heart phenotype” value in the series with PARK7 is reported as about 18%. For “UCHL1MO1: morpholino targeting UCHL1, 5′-TATTTCCATCGGTTTCCACTCCATG-3′ (all phosphorodiamidate morpholino (PMO))”, in the series on UCHL1, the “Tail phenotype % curly tail” value worked out at 53%.

Turning to “UCHL1MO2: morpholino targeting UCHL1 exon 4, 5′-GTTCCTTAAACATATCCACTTACCA-3′ (all phosphorodiamidate morpholino (PMO))”, the “Tail phenotype % curly tail” value with UCHL1 worked out at 79%. Regarding “rhodamine-ubiquitin-propargylamide [Rh-Ub-PA]”, in series [1], the “labeling of purified recombinant human UCHL1” value was “nearly all UCHL1 is labeled”.
